{"source": "patent US20080089848A1", "about": "“INTRATHECAL INJECTION OF MICROBUBBLES” (priority 2006, published 2008)", "origin": "cited, not measured here", "key": {"[1]": {"tested_on": "middle cerebral artery occlusion"}, "vasospasm [2]": {"tested_on": "vasospasm"}, "[3]": {"tested_on": "glutamate-induced nitric oxide related neurotoxicity"}, "[4]": {"details": "systemic administration, patients with intracranial hypertension"}, "traumatic brain injury": {"tested_on": "traumatic brain injury", "details": "parental administration no more than 12 hours post-trauma"}, "[5]": {"tested_on": "primary murine cerebellar granule neurons"}, "[6]": {"tested_on": "beta amyloid protein; dopaminergic neurons"}, "vasospasm following SAH": {"tested_on": "vasospasm following SAH", "details": "collagen devices, canines with autologous blood in the cisterna magna"}, "vasospasm [7]": {"tested_on": "vasospasm", "remark": "listed apart in the source"}, "[8]": {"details": "rat MCA occlusion, retrograde cerebral vein infusion"}, "[9]": {"details": "intracisternal injection, patients, Hamada 2003"}}, "data": [{"compound": "CCNCc1cc(C(C)(C)C)c(O)c(C(C)(C)C)c1", "note": "[LY231617]", "values": [{"measurement": "BBB permeability", "setting": "[1]; [8]", "result": "significant improvement"}, {"measurement": "local cerebral blood flow", "setting": "[1]; [8]", "result": "significant increase"}, {"measurement": "ischemic damage", "setting": "[1]; seven hours post-MCA occlusion", "result": "significantly reduced"}]}, {"compound": "NCCN(CCN)/[N+]([O-])=N/O", "note": "[diethylene-triamine/NO]", "values": [{"measurement": "vasospasm in rabbits", "setting": "vasospasm [2]; implants in the cisterna magna, Pradilla", "result": "prevented vasospasm"}, {"measurement": "vasospasm in the rabbit basilar artery", "setting": "vasospasm [2]; implants in the subarachnoid space, Gabikian", "result": "prevented vasospasm"}]}, {"compound": "CN(c1nc2ccccc2s1)C1CCN(C[C@H](O)COc2ccc(F)c(F)c2)CC1", "note": "[lubeluzole]", "values": [{"measurement": "glutamate-induced nitric oxide related neurotoxicity", "setting": "[3]", "result": "inhibits"}]}, {"compound": "O=S(=O)([O-])[O-].[Mg+2]", "note": "[magnesium sulfate]", "values": [{"measurement": "CSF ionized magnesium concentration", "setting": "[4]", "result": "failed to increase"}, {"measurement": "increase of plasma magnesium levels", "setting": "[4]", "result": "> 50", "unit": "%"}]}, {"compound": "[Mg+2]", "note": "[magnesium]", "values": [{"measurement": "brain magnesium homeostasis", "setting": "traumatic brain injury", "result": "restores brain magnesium homeostasis"}, {"measurement": "motor and cognitive outcome", "setting": "traumatic brain injury", "result": "profoundly improves both motor and cognitive outcome"}]}, {"compound": "TNF-α", "values": [{"measurement": "concentration that markedly reduces the capacity of IGF-I to promote survival", "setting": "[5]", "result": "≥ 10", "unit": "pg/mL"}]}, {"compound": "VEGF", "values": [{"measurement": "neuroprotection in AD", "setting": "[6]; Yang", "result": "provides neuroprotection in AD by binding to beta amyloid protein"}, {"measurement": "neuroprotection in PD", "setting": "[6]; low dose, Yasuhara", "result": "neuroprotective towards dopaminergic neurons"}]}, {"compound": "hirudin", "values": [{"measurement": "reduction in the diameter of the basilar artery", "setting": "vasospasm following SAH", "result": "lowered the reduction in the diameter of the basilar artery"}]}, {"compound": "urokinase", "values": [{"measurement": "safety and prevention of vasospasms", "setting": "vasospasm [7]; human, in vivo", "result": "safe and reasonable means of preventing vasospasms"}, {"measurement": "occurrence of symptomatic vasospasm", "setting": "vasospasm [7]; [9]", "result": "significantly reduced"}, {"measurement": "rate of permanent neurological deficits", "setting": "vasospasm [7]; [9]", "result": "lower rate"}]}]}
